Test system: primary fetal rat neurons
Test: Cell survival of primary cortical neurons (cell counts)
Assay type: cell-based
Details: 24 hours, Control 100 ± 1.57, mixture: 30 ppb of the element from each compound; for Viable Cell Number (Mean + SEM, n = 6): 150 ppb sulfur compound(s); for Viable Cell Number (Mean ± SEM, n = 6): 150 ppb selenium compound(s)
Procedure: For primary neurons, dissociated primary cortical neuron cultures were established from E-18 rat embryos as previously described (Lovell et al., Free Radic. Biol. Med. 2000; Lovell et al., Neurobiol. Aging 2001). Studies were carried out on cells 7 days in culture by switching to Locke's solution consisting of 1 mL of 154 mM NaCl, 5.6 mM KCl, 2.3 mM CaCl2, 1.0 mM MgCl2, 3.6 mM NaHCO3, 10 mM glucose, 5 mM HEPES (pH 7.2) with 10 mg/L gentamicin sulfate. Primary neurons were treated for 24 hours in Locke's solution with the indicated selenium and sulfur compounds in Table 5. Cell counts were performed to measure cell survival/toxicity.
The effects of the selenium and sulfur compounds, identified as components of water extracts of selenium-enriched yeast, on neuronal cell survival was also tested. Primary neurons isolated from fetal rat brain were incubated with chemically synthesized individual selenium and sulfur compounds that were identified as components of water extracts of selenium-enriched yeast (Table 5). In this case, the elemental concentration of each compound identified in Table 5 was 150 ppb and, where mixtures were used, the 150 ppb treatment was made up of 30 ppb of the element from each of the five compounds in question.

| Compound | Viable Cell Number (Mean + SEM, n = 6) | Viable Cell Number (Mean ± SEM, n = 6) |
| --- | --- | --- |
| CSC[C@H]1O[C@@H](n2cnc3c(N)ncnc32)[C@H](O)[C@@H]1O [Compound H, 5′-deoxy-5′-methylthioadenosine] | 100.24 ± 9.45 | – |
| C[Se]CC[C@H](N)C(=O)O [B, L-Selenomethionine] | – | 90.59 ± 6.82 |
| CSC[C@H](N)C(=O)O [F, L-Methylcysteine] | 96.48 ± 3.89 | – |
| CSCC[C@H](N)C(=O)O [G, L-methionine] | 103.84 ± 4.98 | – |
| C[Se]C[C@H](N)C(=O)O [A, L-Methylselenocysteine] | – | 94.45 ± 1.72 |

Source: patent publication US10201558B2, “Compositions of selenoorganic compounds and methods of use thereof” (Alltech, Inc., priority 2014, dated 2019)
